Experimental data taken from PMC6445162, “Effects of NS2B-NS3 protease and furin inhibition on West Nile and Dengue virus replication” (Journal of Enzyme Inhibition and Medicinal Chemistry, 2017).
Where “and” joins values, the source holds several entries; their conditions need not be identical. Identical values can stand only once. Like-named read-outs stand apart in the source and are kept apart here. Peptide text beside a SMILES is read from it.

Key:
[1] = molecular target: T1, WNV-protease (West Nile virus, UniProt P06935); assay: Incubation with WNV protease and HPLC analysis of cleavage; assay type: biochemical; settings: identical conditions, 4 h; data not shown
T1 construct: WNV NS2B 40-amino acid cofactor together with the NS3 protease domain
T1 sequence (P06935 1502-1679): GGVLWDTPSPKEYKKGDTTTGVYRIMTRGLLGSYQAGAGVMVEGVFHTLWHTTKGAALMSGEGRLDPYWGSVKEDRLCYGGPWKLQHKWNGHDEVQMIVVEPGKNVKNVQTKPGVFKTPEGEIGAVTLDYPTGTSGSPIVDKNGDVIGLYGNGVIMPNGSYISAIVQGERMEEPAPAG
T1 sequence (P06935 1424-1463): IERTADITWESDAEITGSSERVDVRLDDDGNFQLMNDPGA
Experimental: The preferred P3-P1 Lys-Lys-Arg segment[29] was used for the preparation of a series of peptidic inhibitors. The peptides were modified in their prime site segment and at the P4 position (Table 2). […] In contrast, under identical conditions approximately 33% of the chromogenic substrate Phac-Lys-Lys-Arg-pNA was cleaved (data not shown). Thus, these compounds seem to be poor substrates of the WNV NS2B-NS3 protease and therefore, act as competitive inhibitors. The best Ki values <0.2 µM were obtained for peptides with the general structure phenylacetyl-Lys-Lys-Arg-NH2 containing an N-terminal guanidinomethyl substitution at the P4-residue.

[2] = molecular target: T2, WNV NS2B-NS3 protease (West Nile virus, UniProt P06935); parameters: method as in PMID 23307694; settings: reference compounds available from previous studies; cited from earlier work
T2 construct: WNV NS2B 40-amino acid cofactor together with the NS3 protease domain
T2 sequence (P06935 1502-1679): as the sequence (P06935 1502-1679) above
T2 sequence (P06935 1424-1463): as the sequence (P06935 1424-1463) above

[3] = molecular target: T3, DENV serotype 2 NS2B-NS3 protease (Dengue virus type 2, UniProt P14340); assay: Enzyme kinetic inhibition of DENV-2 NS2B-NS3 protease construct; assay type: biochemical, Dengue virus serotype 2; settings: 100 μM inhibitor in the presence of 125 μM substrate; read-out: % Inhib. (DENV)
T3 construct: The proteolytic activity of WNV and DENV is located in the N-terminal part of its NS3 protein; made in house
T3 sequence (P14340 1476-1653): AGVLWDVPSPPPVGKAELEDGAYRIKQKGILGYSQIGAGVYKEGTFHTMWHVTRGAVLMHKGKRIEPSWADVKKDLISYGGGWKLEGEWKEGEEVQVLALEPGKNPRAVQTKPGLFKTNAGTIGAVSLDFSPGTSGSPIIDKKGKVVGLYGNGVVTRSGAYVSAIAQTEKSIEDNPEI
T3 sequence (P14340 1398-1437): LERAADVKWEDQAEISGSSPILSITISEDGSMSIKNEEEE
Experimental: (§1) All measurements were performed at room temperature in black flat-bottom 96-well plates (Nunc, Langenselbold, Germany) using microplate readers (Tecan Safire^2, λex = 380 nm and λem = 460 nm, Tecan Group Ltd., Männedorf, Switzerland or Fluoroskan Ascent type 374, λex = 355 nm and λem = 460 nm; Thermo Fisher Scientific, Vantaa, Finland). The assays with the flavivirus protease constructs were performed with 125 μl buffer (100 mM Tris pH 8.5 containing 20% glycerol, 0.01% Triton X-100, and the inhibitor), 50 μl substrate solution, and were started by addition of 25 μl enzyme solution (total assay volume 200 μl).
(§2) The DENV serotype 2 NS2B-NS3 protease construct was prepared from an identical clone as described by D’Arcy et al.[26] The purification of the protease was carried out in a buffer with high ion-strength and low pH value, in the absence of glycerol (20 mM Bis-Tris, 500 mM NaCl, pH 6.3), in order to prevent autolysis of the enzyme. Purification was performed by using a 5 ml HisTrapTM FF column (GE Healthcare) and subsequently, a HiLoad 16/60 SuperdexTM 75 column (GE Healthcare). The assays with the DENV-2 NS2B-NS3^pr° (∼39 nM in well) were performed with the substrate Phac-Lys-Arg-Arg-AMC ×3 TFA (125 µM, 62.5 µM and 31.25 µM in assay, KM = 60 µM). All Ki values were obtained from Dixon plots[27] and are the average of at least two measurements. Due to the weak potency of most compounds against the DENV-2 NS2B-NS3 protease construct, only the percentage of inhibition at a constant inhibitor concentration of 100 µM in the presence of 125 µM substrate was determined.

[4] = molecular target: T2, WNV NS2B-NS3 protease; assay: Enzyme kinetic inhibition of WNV NS2B-NS3 protease construct (Dixon plot); assay type: biochemical; settings: for Ki: covalently linked WNV NS2B-NS3 construct, substrate Phac-Leu-Lys-Lys-Arg-AMC, Dixon plots, average of at least two measurements
Experimental: as §1
For measurements with the covalently linked WNV NS2B-NS3 protease construct (∼4 nM in assay) the substrate Phac-Leu-Lys-Lys-Arg-AMC ×3 TFA (50 µM, 100 µM and 200 µM in assay, KM = 47.5 µM) was used, as described previously.
as §2

[5] = molecular target: DENV serotype 2 NS2B-NS3 protease construct (Dengue virus serotype 2); assay: enzyme inhibition (percent inhibition of the cleavage of a fluorogenic substrate); DENV-2 NS2B-NS3pro ~39 nM in well; 100 µM inhibitor, 125 µM substrate Phac-Lys-Arg-Arg-AMC (KM = 60 µM); 100 mM Tris pH 8.5, 20% glycerol, 0.01% Triton X-100; room temperature
[6] = system: DENV (strain 16681); assay: DENV plaque assay (virus yield from infected Huh-7 cells, titration on VeroE6); assay type: cell-based, Dengue virus serotype 2; settings: preliminary studies
Experimental: Inhibition of DENV propagation was determined by plaque assay as described recently[20]^,[28] with slight modifications. Huh-7 cells were seeded into 96-well plates and incubated overnight. The next day, cells were infected with DENV (strain 16681) at a multiplicity of infection (MOI) of 1 PFU/cell. Given concentrations of the compounds, dissolved in culture medium, were added to the cells together with the virus. After 2 h incubation at 37 °C, inocula were removed and cells were covered with fresh medium containing given concentrations of the inhibitors. Production of virus progeny was determined 48 h postinfection by titration of cell supernatants using a plaque assay on VeroE6 cells. Ribavirin was included as a reference compound.

N=C(N)NCCC[C@H](NC(=O)[C@H](CCCCN)NC(=O)[C@H](CCCCN)NC(=O)Cc1ccccc1)C(=O)Nc1ccc([N+](=O)[O-])cc1 [Phac-Lys-Lys-Arg-pNA] (HELM PEPTIDE1{[O=C(Cc1ccccc1)[*:2]].K.K.R.[O=[N+]([O-])c1ccc(N[*:1])cc1]}$$$$V2.0)
amount cleaved by the WNV-protease [1]: approximately 33%

N=C(N)NCCCCNC(=O)C(CCCCN)NC(=O)C(CCCCN)NC(=O)Cc1ccc(Cl)c(Cl)c1 (stereo not drawn) [3,4-di-Cl-Phac-Lys-Lys-agmatine]
Ki [2]: 400 nM

N=C(N)NCCC[C@H](NC(=O)[C@H](CCCCN)NC(=O)[C@H](CCCCN)NC(=O)Cc1cccc(CNC(=N)N)c1)C(N)=O [inhibitor 37]
inhibition at 100 µM [3]: 32.3% | Ki [4]: 0.18 µM

N=C(N)NCCC[C@H](NC(=O)[C@H](CCCCN)NC(=O)[C@H](CCCCN)NC(=O)Cc1ccccc1)C(=O)NCC(N)=O [inhibitor 18] (HELM PEPTIDE1{[O=C(Cc1ccccc1)[*:2]].K.K.R.G.[am]}$$$$V2.0)
inhibition at 100 µM [3]: 30.7% | Ki [4]: 2.56 µM

N=C(N)NCCC[C@H](NC(=O)[C@H](CCCCN)NC(=O)[C@H](CCCCN)NC(=O)Cc1ccccc1)C(=O)N1CCC[C@H]1C(N)=O [inhibitor 23] (HELM PEPTIDE1{[O=C(Cc1ccccc1)[*:2]].K.K.R.P.[am]}$$$$V2.0)
inhibition at 100 µM [3]: 5.2% | Ki [4]: 200 µM

N=C(N)NC1CCC(CNC(=O)C(CCCCN)NC(=O)C(Cc2ccc(CN)cc2)NC(=O)Cc2ccccc2)CC1 (centres unmarked) [inhibitor 3, Phac-Phe(4-AMe)-Lys-GCMA]
inhibition at 100 µM [3]: 12.4% | fold reduced potency against WNV protease ([4]; compared with reference inhibitor 2): 4 fold | Ki [4]: 4.7 µM and 4.71 µM

N=C(N)NCCC[C@H](NC(=O)[C@H](CCCCN)NC(=O)[C@H](CCCCN)NC(=O)[C@@H](N)C12CC3CC(CC(C3)C1)C2)C(N)=O [inhibitor 44] (HELM PEPTIDE1{[N[C@H](C(=O)[*:2])C12CC3CC(CC(C3)C1)C2].K.K.R.[am]}$$$$V2.0)
inhibition at 100 µM [3]: 14.6% | Ki [4]: 70 µM

N=C(N)NCCC[C@H](NC(=O)[C@H](CCCCN)NC(=O)[C@H](CCCCN)NC(=O)Cc1cccc(CN)c1)C(N)=O [inhibitor 36]
inhibition at 100 µM [3]: 12.4% | Ki [4]: 0.36 µM

CN(CC(N)=O)C(=O)[C@H](CCCNC(=N)N)NC(=O)[C@H](CCCCN)NC(=O)[C@H](CCCCN)NC(=O)Cc1ccccc1 [inhibitor 24] (HELM PEPTIDE1{[O=C(Cc1ccccc1)[*:2]].K.K.R.[Sar].[am]}$$$$V2.0)
inhibition at 100 µM [3]: 3.2% | Ki [4]: 50 µM

4-(guanidinomethyl)-phenylacetyl-Lys-Lys-Arg-NH2 (peptide)
% inhibition at 100 μM inhibitor, 125 μM substrate [5]: 65%

N=C(N)NCCC[C@H](NC(=O)[C@H](CCCCN)NC(=O)[C@H](CCCCN)NC(=O)Cc1ccc(CN)cc1)C(N)=O [inhibitor 35]
inhibition at 100 µM [3]: 31.7% | Ki [4]: 0.38 µM

N=C(N)N[C@H]1CC[C@H](CNC(=O)[C@H](CCCCN)NC(=O)[C@H](CCCCN)NC(=O)Cc2ccc(Cl)c(Cl)c2)CC1 [inhibitor 1]
antiviral effect in DENV-infected cells [6]: no antiviral effect

N=C(N)NCCC[C@H](NC(=O)[C@H](CCCCN)NC(=O)[C@H](CCCCN)NC(=O)Cc1cccc(N)c1)C(N)=O [inhibitor 31]
inhibition at 100 µM [3]: 27.5% | Ki [4]: 1.2 µM
